This note sets out measurements from patent publication US5298522A, “6-chloro-5-fluoro-3-(2-thenoyl)-2-oxindole-1-carboxamide as an analgesic and anti-inflammatory agent while maintaining a normal urine protein/creatinine ratio” (Pfizer Inc., priority 1993, dated 1994).

One data set can be described thus: Proteinuria in patients. The class given is in vivo, human. Particulars: for induction of proteinuria: in some patients, dose not stated.
Data set [1] can be described thus: Double blind, placebo controlled, crossover study, urine protein/creatinine ratio (Example 2). The format is in vivo, human. Particulars: 80 mg/day, four weeks. On the procedure: (§1) "Significant increase or decrease" for proteinuria effects is herein defined as an increase or decrease having statistical significance as determined by conducting an analysis of variance (ANOVA). First, a regression line is fitted to protein/creatinine (PC) ratio data for each patient and treatment period, and a slope is determined. The slope is then analyzed using an ANOVA to test for sequence, period and treatment effects, to determine if a difference exists between the control and treated groups.
(§2) Large amounts of creatinine and much smaller amounts of protein are normally excreted in the urine of normal human subjects, and a protein/creatinine ratio of approximately 0.05 to 0.1 is usually maintained.
Using a double blind, placebo controlled, crossover design, 6-chloro-5-fluoro-3-(2-thenoyl)-2-oxindole-1-carboxamide was administered to 25 patients at a dose level of 80 mg/day. Patients were randomized to receive either 6-chloro-5-fluoro-3-(2-thenoyl)-2-oxindole-1-carboxamide for four weeks followed by placebo for four weeks, or to receive placebo for four weeks followed by 6-chloro-5-fluoro-3-(2-thenoyl)-2-oxindole-1-carboxamide for four weeks. Patients could switch to the second leg of the treatment regimen earlier if symptoms became intolerable. […] Urine protein/creatinine ratio was determined at baseline and weekly during the study. […]

Data set [2] can be described thus: Double blind placebo-controlled study, urine protein/creatinine ratio (Example 1). The class given is in vivo, human. How it is done:
as §1, §2
Using a double blind placebo-controlled design, 6-chloro-5-fluoro-3-(2-thenoyl)-2-oxindole-1-carboxamide was administered to 36 patients at dose levels of 40, 80, 160 and 320 mg, once daily. A single dose was given on day 1, followed by a seven day washout period, and then dosing was continued for a further 21 days. […] In addition, following the 2nd, 8th and 22nd dose; and 240 hours after the last dose, one 20 ml aliquot of urine, following the first am void but prior to the administration of study medication, was withdrawn for measurement of quantitative protein and creatinine.

The subject of data set [3] is PBQ-induced abdominal stretching in mice. Description: Blockage of abdominal stretching induced by 2-phenyl-1,4-benzoquinone (PBQ). The class given is in vivo, mice (Carworth males, albino CF-1 strain). Particulars: oral, one hour before PBQ 2 mg/kg intraperitoneally. On the procedure:
The method is based on that of Siegmund et al., Proc. Soc. Exp. Biol. Med., 95, 729-731, (1957), as adapted for high throughput [see further Milne and Twomey, Agents and Actions, 10, 31-37, (1980)]. The mice used in these experiments are Carworth males, albino CF-1 strain, weighing 18-20 g. All mice are fasted overnight prior to drug administration and testing.
6-Chloro-5-fluoro-3-(2-thenoyl)-2-oxindole-1-carboxamide is dissolved or suspended in a vehicle consisting of ethanol (5%), emulphor 620 (a mixture of polyoxyethylene fatty acid esters, 5%) and saline (90%). This vehicle also served as control. Doses are on a logarithmic scale (i.e., . . . 0.32, 1.0, 3.2, […] . . . mg/kg), and are calculated from weights of the salt when applicable. The route of administration is oral, with concentrations varied to allow a constant dosage of 10 ml/kg of mouse. The aforesaid method of Milne and Towney is used to determine efficacy and potency. […] Individual mice are then immediately placed in a warmed lucite chamber, and, starting five minutes after PBQ administration, the number of abdominal constrictions during the subsequent 5 minutes are recorded. The degree of analgesic protection, Maximal Possible Effect (% MPE), is calculated on the basis of suppression of abdominal constriction relative to counts from concurrent control animals run on the same day. […]

The test system of data set [4] is carrageenin-induced rat-foot edema. In words: Carrageenin-induced rat-foot edema test. The format is in vivo, rats (adult, male, albino). Particulars: by gavage, one hour before carrageenin. From the text:
[Winter et al., Proc. Soc. Exp. Biol. Med., 111, 544, (1963)].
Unanesthetized, adult, male, albino rats of 150 g to 190 g body weight are numbered, weighed, and an ink mark placed on the right lateral malleolus. Each paw is immersed in mercury exactly to the ink mark. The mercury is contained in a glass cylinder, connected to a Statham Pressure Transducer. The output from the transducer is fed through a control unit to a microvoltameter. The volume of mercury displaced by the immersed paw is read. The drug is given by gavage. One hour after drug administration, edema is induced by injection of 0.05 ml of 1% solution of carrageenin into the plantar tissue of the marked paws. Immediately thereafter, the volume of the injected foot is measured. The increase in foot volume 3 hours after the injection of carrageenin constitutes the individual inflammatory response.
For orientation: The carrageenan paw model is a standard test of acute inflammation.

SMILES strings stand for the structures.

With `NC(=O)N1C(=O)C(C(=O)c2cccs2)c2cc(Cl)ccc21` (stereo not shown) [5-chloro-3-(2-thenoyl)-2-oxindole-1-carboxamide], in the data set “Proteinuria in patients” (80 mg/day, within four weeks), the patients with proteinuria is 10-15%. Moreover, the course of proteinuria result in the data set “Proteinuria in patients” (80 mg/day, upon discontinuation of medication) is “non-progressive and reversible upon discontinuation of medication”. Moreover, in the data set “Proteinuria in patients”, the induction of proteinuria result was “induce non-progressive, reversible proteinuria in some patients”.

Turning to `NC(=O)N1C(=O)C(C(=O)c2cccs2)c2cc(F)c(Cl)cc21` (stereo not shown) [6-Chloro-5-fluoro-3-(2-thenoyl)-2-oxindole-1-carboxamide], in data set [1], the “change in urine protein/creatinine ratio during treatment” value is reported as “No significant changes”. Moreover, the “urine protein/creatinine ratio, drug vs placebo treatment” value in data set [1] (crossover) is on record as “no significant differences”. The proteinuria result in data set [2] (320 mg/day) was “does not cause proteinuria”. For the same compound, the “urine protein/creatinine ratio, drug treated groups vs placebo treated groups” value in data set [2] (40, 80, 160 and 320 mg once daily, single dose, seven day washout, then further 21 days) was “no significant differences”. Also, in the data set “Proteinuria in patients”, the induction of proteinuria entry is recorded as “does not induce proteinuria”. Moreover, the analgesic activity entry in data set [3] is recorded as “possess analgesic activity”. For the same compound, the anti-inflammatory activity result in data set [4] is “possesses anti-inflammatory activity”.
